PubChem BioAssay AID192 (DTP/NCI, 2004)
Values joined by “and” are separate entries in the source; they are usually repeats but may differ in a detail not shown here. Equal entries are not always repeated. Inconclusive results and toxic doses are left out.

Test system: BDF1 mice, B16 melanoma ip, median survival T/C
Experiment: NCI In Vivo Anticancer Drug Screen. Data for tumor model B16 Melanoma (intraperitoneal) in B6D2F1 (BDF1) mice
Conditions: endpoint: median survival time, higher = longer survival
Description: The antitumor activity of compounds was measured in mice bearing transplantable tumors. Survival or tumor size were measured and the results are expressed as the measurement made in the treated group (T) divided by the measurement made in the vehicle treated control group (C). The tumor model used in this assay is B16 Melanoma (intraperitoneal) in B6D2F1 (BDF1) mice

[1] = dose: 25.0 mg/kg/injection, schedule: Q01DX009 (ip), vehicle: Klucel (hydroxypropylcellulose) (HPC)
[2] = dose: 50.0 mg/kg/injection, schedule: Q01DX009 (ip), vehicle: Klucel (hydroxypropylcellulose) (HPC)
[3] = dose: 50.0 mg/kg/injection, schedule: Q04DX003 (ip), vehicle: saline with Tween-80
[4] = dose: 100.0 mg/kg/injection, schedule: Q04DX003 (ip), vehicle: saline with Tween-80
[5] = dose: 100.0 mg/kg/injection, schedule: Q01DX009 (ip), vehicle: Klucel (hydroxypropylcellulose) (HPC)
[6] = dose: 200.0 mg/kg/injection, schedule: Q01DX009 (ip), vehicle: Klucel (hydroxypropylcellulose) (HPC)
[7] = dose: 50.0 mg/kg/injection, schedule: Q01DX009 (ip), vehicle: saline with Tween-80
[8] = dose: 100.0 mg/kg/injection, schedule: Q01DX009 (ip), vehicle: saline with Tween-80

Structure (SMILES): NNC(=O)c1ccc(Cl)cc1Cl
- T/C (dose: 12.5 mg/kg/injection, schedule: Q01DX009 (ip), vehicle: Klucel (hydroxypropylcellulose) (HPC)): 100 % of control
- T/C (dose: 12.5 mg/kg/injection, schedule: Q04DX003 (ip), vehicle: Klucel (hydroxypropylcellulose) (HPC)): 103 % of control
- T/C [1]: 86 % of control
- T/C (dose: 25.0 mg/kg/injection, schedule: Q04DX003 (ip), vehicle: Klucel (hydroxypropylcellulose) (HPC)): 93 % of control

Structure (SMILES): CC1=C(/C=C/C(C)=C/C=C/C(C)=C/CO)C(C)(C)CCC1
- T/C (dose: 4.0 mg/kg/injection, schedule: Q01DX009 (ip), vehicle: saline with Tween-80): 90 % of control and 100 % of control
- T/C (dose: 8.0 mg/kg/injection, schedule: Q01DX009 (ip), vehicle: saline with Tween-80): 99 % of control and 101 % of control
- T/C (dose: 16.0 mg/kg/injection, schedule: Q01DX009 (ip), vehicle: saline with Tween-80): 97 % of control and 103 % of control
- T/C (dose: 32.0 mg/kg/injection, schedule: Q01DX009 (ip), vehicle: saline with Tween-80): 90 % of control and 105 % of control

Structure (SMILES): Nc1ccccc1SC1CC(=O)N(c2ccc(Br)cc2Cl)C1=O (stereo unspecified)
- T/C [2]: 94 % of control

Structure (SMILES): Cc1c(Cl)cccc1NC(=O)c1ccc(Cl)cc1Cl
- T/C (dose: 100.0 mg/kg/injection, schedule: Q04DX003 (ip), vehicle: Klucel (hydroxypropylcellulose) (HPC)): 95 % of control
- T/C (dose: 200.0 mg/kg/injection, schedule: Q04DX003 (ip), vehicle: Klucel (hydroxypropylcellulose) (HPC)): 102 % of control
- T/C (dose: 400.0 mg/kg/injection, schedule: Q04DX003 (ip), vehicle: Klucel (hydroxypropylcellulose) (HPC)): 100 % of control

Structure (SMILES): COC(=O)Nc1nc2ccc(C(=O)c3cccs3)cc2[nH]1
- T/C (dose: 20.0 mg/kg/injection, schedule: Q01DX015 (ip), vehicle: saline): 97 % of control
- T/C (dose: 50.0 mg/kg/injection, schedule: Q04DX003 (ip), vehicle: other): 103 % of control
- T/C [3]: 180 % of control
- T/C (dose: 50.0 mg/kg/injection, schedule: Q05DX005 (ip), vehicle: saline): 165 % of control
- T/C (dose: 60.0 mg/kg/injection, schedule: Q05DX005 (ip), vehicle: saline): 195 % of control
- T/C (dose: 70.0 mg/kg/injection, schedule: Q05DX005 (ip), vehicle: saline): 191 % of control
- T/C (dose: 75.0 mg/kg/injection, schedule: Q04DX003 (ip), vehicle: other): 121 % of control
- T/C [4]: 211 % of control

Structure (SMILES): CNCCN(C)CCNC
- T/C (dose: 25.0 mg/kg/injection, schedule: Q01DX009 (ip), vehicle: saline): 98 % of control
- T/C (dose: 50.0 mg/kg/injection, schedule: Q01DX009 (ip), vehicle: saline): 89 % of control
- T/C (dose: 100.0 mg/kg/injection, schedule: Q01DX009 (ip), vehicle: saline): 95 % of control

Structure (SMILES): CCN(C(=O)Nc1ccc(OC)cc1)c1ccccc1
- T/C [5]: 97 % of control
- T/C [6]: 100 % of control
- T/C (dose: 400.0 mg/kg/injection, schedule: Q01DX009 (ip), vehicle: Klucel (hydroxypropylcellulose) (HPC)): 88 % of control

Structure (SMILES): CC(CN(C)C)CN1c2ccccc2Sc2ccc(C(F)(F)F)cc21 (stereo unspecified)
- T/C (dose: 0.78 mg/kg/injection, schedule: Q01DX009 (ip), vehicle: saline): 109 % of control
- T/C (dose: 1.56 mg/kg/injection, schedule: Q01DX009 (ip), vehicle: saline): 105 % of control
- T/C (dose: 3.12 mg/kg/injection, schedule: Q01DX009 (ip), vehicle: saline): 116 % of control
- T/C (dose: 6.25 mg/kg/injection, schedule: Q01DX009 (ip), vehicle: saline): 103 % of control
- T/C (dose: 12.5 mg/kg/injection, schedule: Q01DX009 (ip), vehicle: saline): 103 % of control

Structure (SMILES): CCCC(C)c1ccccc1O (stereo unspecified)
- T/C (dose: 25.0 mg/kg/injection, schedule: Q01DX009 (ip), vehicle: saline with Tween-80): 108 % of control
- T/C [7]: 108 % of control
- T/C [8]: 92 % of control

Structure (SMILES): Nc1n[nH]c(=O)[nH]1
- T/C [1]: 107 % of control
- T/C [2]: 98 % of control
- T/C [5]: 109 % of control
- T/C [6]: 107 % of control

Structure (SMILES): OC(CCCCl)CC(O)(C(F)(F)F)C(F)(F)F (stereo unspecified)
- T/C [7]: 111 % of control
- T/C [3]: 112 % of control
- T/C [8]: 102 % of control
- T/C [4]: 115 % of control
- T/C (dose: 200.0 mg/kg/injection, schedule: Q01DX009 (ip), vehicle: saline with Tween-80): 108 % of control
- T/C (dose: 200.0 mg/kg/injection, schedule: Q04DX003 (ip), vehicle: saline with Tween-80): 120 % of control

Structure (SMILES): O=C(Nc1ccc(F)cc1)NC1CCCCC1
- T/C [5]: 87 % of control
- T/C [6]: 100 % of control
